The values that follow are results of earlier work, collected in patent publication US5434174A, “Isoxazole derivatives for the treatment of irritable bowel syndrome” (priority 1993, dated 1995).

For data set [1] the following is noted: IBS therapy; cited from earlier work.
The next data set concerns gastric secretion. As to conditions: intravenous infusion in humans; cited from earlier work.

As to `CCN(CC)CCOC(=O)C1(C2CCCCC2)CCCCC1` [Bentyl], the side effects result in data set [1] is on record as “serious side effects”.
For `N[C@@H](Cc1c[nH]c2ccc(O)cc12)C(=O)O` [Example 5-HTP, 5-hydroxytryptophane], in the data set with gastric secretion, the “effect on production of mucus” value was “increasing the production of mucus”; the “effect on volume and acidity of spontaneous and histamine-induced gastric secretion” value was “inhibits the volume and acidity of both spontaneous and histamine-induced gastric secretion”.
For `NCCc1c[nH]c2ccc(O)cc12` [Example 5-HT, 5-hydroxytryptamine], in the data set on gastric secretion, the “effect on production of mucus” value is listed as “increasing the production of mucus”; the “effect on volume and acidity of spontaneous and histamine-induced gastric secretion” value was “inhibits the volume and acidity of both spontaneous and histamine-induced gastric secretion”.
